The OligoGym collection
After the bases stand the sugars from the 5' end (letter, count) and the backbone: PS all phosphorothioate, else s phosphorothioate and o phosphodiester by linkage. Methylation of C is not given here. e = 2'-O-(2-methoxyethyl) (MOE); k = constrained ethyl (cEt); d = 2'-deoxy (DNA); m = 2'-O-methyl

Target: HSD17B13
Settings: ASO, HepaRG

Row | Sequence | target mRNA inhibition (1 µM) [%] | other results
1 | TCTCAAGGAGTACTTC (sugars k3 d10 k3, PS) | 80 | target mRNA inhibition (0.02 µM): 26%; target mRNA inhibition (0.078 µM): 32%; target mRNA inhibition (0.313 µM): 58%; target mRNA inhibition (1.25 µM): 82%; target mRNA inhibition (5 µM): 91%
2 | AGAAATTTGTGAACCT (sugars k3 d10 k3, PS) | 39 | –
3 | CGGCACTCAGCTGCAG (sugars k3 d10 k3, PS) | 55 | –
4 | AGAGGCTAGGGAAATC (sugars k3 d9 k3 e1, PS) | 68 | –
5 | AACTAAACATGACAGC (sugars k3 d10 k3, PS) | 72 | target mRNA inhibition (0.02 µM): 8%; target mRNA inhibition (0.078 µM): 26%; target mRNA inhibition (0.313 µM): 40%; target mRNA inhibition (1.25 µM): 65%; target mRNA inhibition (5 µM): 85%
6 | TAGGGAGGTAGCTTTT (sugars k3 d10 k3, PS) | 46 | –
7 | GGTCCATTGTTTCTTA (sugars k3 d10 k3, PS) | 36 | –
8 | CTCCATAATAATAGCT (sugars k3 d10 k3, PS) | 59 | –
9 | CATAGGACATGGAGAC (sugars k3 d10 k3, PS) | 69 | target mRNA inhibition (0.02 µM): 0%; target mRNA inhibition (0.078 µM): 16%; target mRNA inhibition (0.313 µM): 37%; target mRNA inhibition (1.25 µM): 58%; target mRNA inhibition (5 µM): 83%
10 | CTGAAATTGATACACC (sugars kkdddddddddkekek, PS) | 45 | –
11 | CTAGGATGTTGACCTC (sugars k3 d10 k3, PS) | 0 | –
12 | TCGGTCACCTTTCATA (sugars k3 d10 k3, PS) | 64 | –
13 | GTCTGCCTGCCTATTC (sugars k3 d10 k3, PS) | 53 | –
14 | AGCATTATTCACCACG (sugars k3 d10 k3, PS) | 53 | –
15 | TTCTATTGTATGAGGT (sugars k3 d10 k3, PS) | 0 | –
16 | GATACTTACCAATATG (sugars k3 d10 k3, PS) | 22 | –
17 | CAAGACAGACTGTTGA (sugars k3 d10 k3, PS) | 39 | –
18 | ATGCAAGATTTACTTC (sugars k3 d10 k3, PS) | 38 | –
19 | TGCATCTTAAGATACC (sugars k3 d10 k3, PS) | 81 | –
20 | AGGCTGTAAGAGTCAG (sugars k3 d9 k3 e1, PS) | 49 | –
21 | GTCACCTTTCATAATG (sugars k3 d10 k3, PS) | 45 | –
22 | CTAAAATTGTCTAAAC (sugars k3 d9 k3 e1, PS) | 7 | –
23 | GTAATAGCCAGTACAG (sugars kkdddddddddkekek, PS) | 47 | –
24 | AGACTTTGAGACTCTT (sugars kkdddddddddkekek, PS) | 55 | –
25 | TATCTATTATGCACTC (sugars k3 d10 k3, PS) | 48 | –

Row | Sequence | target mRNA inhibition (1 µM) [%] | other results
26 | AAAAGTGTCCTCGATC (sugars k3 d10 k3, PS) | 17 | –
27 | ATGAAGTTAGTATAGT (sugars k3 d9 k3 e1, PS) | 61 | –
28 | CAAGGAGTACTTCACA (sugars k3 d10 k3, PS) | 66 | –
29 | TAACTGAGTTATTCTC (sugars k3 d10 k3, PS) | 41 | –
30 | CCAATACAGGCCATAA (sugars k3 d10 k3, PS) | 38 | –
31 | GCCTAAAGGAGATCTG (sugars k3 d10 k3, PS) | 67 | –
32 | TCTAGGATGATGTTCA (sugars k3 d10 k3, PS) | 64 | –
33 | TGTAATAGCCAGTACA (sugars k3 d10 k3, PS) | 46 | –
34 | GTTCUTGTTGATATTC (sugars k3 d1 m1 d8 k3, PS) | 70 | –
35 | GGATAGTCCATGCAAA (sugars k3 d10 k3, PS) | 64 | –
36 | CTTCAGTTAGCAGCTA (sugars k3 d10 k3, PS) | 50 | –
37 | CTCCAAGTAGGAGTAG (sugars k3 d10 k3, PS) | 5 | –
38 | CCTTACCTTGTGCTTG (sugars k3 d10 k3, PS) | 20 | –
39 | GACTTTTGTTTGTAGC (sugars k3 d10 k3, PS) | 74 | –
40 | GAGTCGGTCACCTTTC (sugars k3 d10 k3, PS) | 82 | target mRNA inhibition (0.02 µM): 0%; target mRNA inhibition (0.078 µM): 30%; target mRNA inhibition (0.313 µM): 55%; target mRNA inhibition (1.25 µM): 82%; target mRNA inhibition (5 µM): 82%
41 | AGTGCTTTTGTGATCC (sugars k3 d10 k3, PS) | 25 | –
42 | AAAGGTGGGATAAACT (sugars k3 d10 k3, PS) | 33 | –
43 | GGCAAATACAGCAGTA (sugars k3 d10 k3, PS) | 64 | –
44 | AAAAACTTCACCAACG (sugars k3 d10 k3, PS) | 8 | –
45 | TGATGTAGTGGGAGTC (sugars kkdddddddddkekek, PS) | 46 | –
46 | TGTGTTCTTGTTGATA (sugars kkdddddddddkekek, PS) | 64 | –
47 | ATAACATGGCTGGCAT (sugars k3 d10 k3, PS) | 14 | –
48 | TTGTTGATATTCTGTG (sugars k3 d10 k3, PS) | 52 | –
49 | AGAAGGACTTTCATAG (sugars k3 d10 k3, PS) | 46 | –
50 | ATAAGAGCCAAACTGC (sugars k3 d10 k3, PS) | 49 | –

Row | Sequence | target mRNA inhibition (1 µM) [%] | other results
51 | ACAAGTGACAGCATTG (sugars k3 d10 k3, PS) | 44 | –
52 | GCAGAATATATACTAG (sugars k3 d10 k3, PS) | 55 | –
53 | CATCTCTGGGACCAAG (sugars k3 d10 k3, PS) | 51 | –
54 | ACTTTTAGTCAGGTAG (sugars k3 d10 k3, PS) | 26 | –
55 | AACTACTTCAGTTAGC (sugars k3 d10 k3, PS) | 53 | –
56 | TGACAATGGTTGATAG (sugars k3 d1 m1 d8 k3, PS) | 42 | –
57 | ATAGCAAGCCAACAGA (sugars k3 d10 k3, PS) | 37 | –
58 | CCATCTAGAATTAAGG (sugars k3 d10 k3, PS) | 0 | –
59 | TCTATCAGACTTCTTA (sugars k3 d10 k3, PS) | 49 | –
60 | GTGCTAAGTAGTAATT (sugars k3 d10 k3, PS) | 58 | –
61 | TAAGATGTCCAGGCAT (sugars k3 d10 k3, PS) | 17 | –
62 | CCCTTAACAAACCTCC (sugars k3 d10 k3, PS) | 43 | –
63 | CCAACCAAACTTCCAG (sugars k3 d1 m1 d8 k3, PS) | 30 | –
64 | GATTACCCCTGGCTTT (sugars k3 d10 k3, PS) | 31 | –
65 | TGCCTGCTGAAACTTG (sugars k3 d10 k3, PS) | 31 | –
66 | ATAAAAATCGCTGCTT (sugars k3 d10 k3, PS) | 11 | –
67 | CTCCTGGTACATGCCA (sugars k3 d10 k3, PS) | 47 | –
68 | GAATGTAAAGGCTGGG (sugars k3 d10 k3, PS) | 42 | –
69 | AATCACAAGTAAGGTA (sugars k3 d10 k3, PS) | 52 | –
70 | TCTTCTCTTGGGTCCA (sugars k3 d10 k3, PS) | 59 | –
71 | TATTAGAAGTCAGCCC (sugars k3 d9 k3 e1, PS) | 32 | –
72 | TAACCAATTATATGAG (sugars k3 d10 k3, PS) | 0 | –
73 | TTTCACCTCAGGTGAC (sugars k3 d10 k3, PS) | 52 | –
74 | ATCTCTGGGACCAAGG (sugars k3 d1 m1 d8 k3, PS) | 52 | –
75 | TAGTGTAAGCTGAGAG (sugars k3 d1 m1 d8 k3, PS) | 31 | –

Row | Sequence | target mRNA inhibition (1 µM) [%] | other results
76 | GCAGAGACAGTAGATT (sugars k3 d10 k3, PS) | 63 | –
77 | ATAAAGCTTTGCAGCA (sugars k3 d10 k3, PS) | 54 | –
78 | CTTGGGTCCATTGTTT (sugars k3 d10 k3, PS) | 44 | –
79 | TCAGACTTCTTACGAC (sugars k3 d10 k3, PS) | 36 | –
80 | AAGAGGCTAGGGAAAT (sugars k3 d10 k3, PS) | 66 | –
81 | GGAGGTAGCTTTTGTC (sugars k3 d10 k3, PS) | 43 | –
82 | GCATCAAGACATTCTA (sugars k3 d9 k3 e1, PS) | 84 | target mRNA inhibition (0.02 µM): 0%; target mRNA inhibition (0.078 µM): 8%; target mRNA inhibition (0.313 µM): 13%; target mRNA inhibition (1.25 µM): 31%; target mRNA inhibition (5 µM): 74%
83 | TTTGTTAGAGTGCTTA (sugars k3 d10 k3, PS) | 80 | target mRNA inhibition (0.02 µM): 12%; target mRNA inhibition (0.078 µM): 30%; target mRNA inhibition (0.313 µM): 56%; target mRNA inhibition (1.25 µM): 86%; target mRNA inhibition (5 µM): 89%
84 | ACAATTTTTCCAATCC (sugars k3 d10 k3, PS) | 86 | target mRNA inhibition (0.02 µM): 9%; target mRNA inhibition (0.078 µM): 37%; target mRNA inhibition (0.313 µM): 62%; target mRNA inhibition (1.25 µM): 76%; target mRNA inhibition (5 µM): 93%
85 | AGGAUAGTCCATGCAA (sugars k3 d1 m1 d8 k3, PS) | 55 | –
86 | AGATGTACACTGACAA (sugars k3 d10 k3, PS) | 66 | –
87 | CCCTAAGTTATTATCC (sugars k3 d10 k3, PS) | 25 | –
88 | CATAATAATAGCTCTA (sugars k3 d1 m1 d8 k3, PS) | 33 | –
89 | TATTAAGTACTGTGAG (sugars k3 d10 k3, PS) | 0 | –
90 | CAGTTTAGATTGCATA (sugars k3 d10 k3, PS) | 60 | –
91 | TTAGTTAGAATAGTCT (sugars kkdddddddddkekek, PS) | 53 | –
92 | TTAAAATAGAGTCGGT (sugars kkdddddddddkekek, PS) | 51 | –
93 | TATTCTTATGTCATCC (sugars k3 d10 k3, PS) | 75 | –
94 | TCATAAAGGTGGGATA (sugars k3 d10 k3, PS) | 40 | –
95 | AAATTGATACACCAAT (sugars k3 d10 k3, PS) | 14 | –
96 | GGCTTAATTTTCGGGT (sugars k3 d10 k3, PS) | 17 | –
97 | GTTAACCTGCAGCAGA (sugars k3 d10 k3, PS) | 51 | –
